In article PMC11245370, “3-Position Biaryl Endochin-like Quinolones with Enhanced Antimalarial Performance” (ACS Infectious Diseases, 2024):
“And” between values parts separate entries of the source, which are not always exact repeats. Equal entries are not always repeated. Where two headings read alike, the source gives them in different places.

What was measured:
[1] = target: human liver cytochrome bc1 complex (Homo sapiens, UniProt P00156); experiment: Human cytochrome bc1 assay (liver mitochondrial preparation)
Description: All use of human tissue was approved by the OHSU IRB. Approximately 10 g of human liver tissue was obtained intraoperatively and placed in ice-cold PBS containing 5 mM glucose. [Note: The specimen was obtained from grossly normal tissue that was resected around the margins of a tumor as part of the standard surgical treatment for hepatic tumors.] Liver was homogenized using a razor blade followed by a Dounce homogenizer. HALT Protease Inhibitor Cocktail (Pierce) was added per the manufacturer’s instructions. A crude mitochondrial fraction was prepared by differential centrifugation as described in Renault et al.[35] The final pellet was resuspended in storage buffer (50 mM tricine, 100 mM KCl, 2 mM NaN, 2.0% dodecyl-beta-D-maltoside, 30% glycerol, pH 8.0). Aliquots of this mitochondrial preparation were frozen in a dry ice–ethanol bath and stored at −80 °C until use.
Two microliters of mitochondrial preparation was resuspended in the assay buffer (50 mM tricine, 100 mM KCl, 2 mM NaN3, 0.1% dodecyl-beta-D-maltoside). […] Antimycin A was dissolved in ethanol as a 1 mM stock. Decylubiquinone was reduced to decylubiquinol with an excess of NaBH4, and the excess NaBH4 was subsequently quenched with hydrochloric acid. […] The rate of the nonenzymatic reaction of cytochrome c and decylubiquinol was measured separately in the absence of mitochondrial preparation and found to be insignificant. […]

[2] = system: P. yoelii sporozoites (liver stage); experiment: Causal prophylaxis, sporozoite challenge in mice; settings: 1.0 mg/kg single oral dose 1 h after 10,000 P. yoelii sporozoites iv; followed 30 days
Description: For this study, mice were inoculated with 10,000 P. yoelii sporozoites via tail vein injections, and drug was administered by gavage an hour later and only once. We monitored for the presence of blood-stage parasites as a measure of liver-stage infection.
Mice were inoculated with 10,000 sporozoites via tail vein injection of CF1 mice treated with or without drug (dissolved in PEG400) 1 h after inoculation. […] Additional monitoring for blood-stage infection was continued for a 30 day period to confirm true causal prophylaxis against P. yoelii challenge. […] Testing involved the use of four animals per group for statistical accuracy. […] A minimum of 5000 red blood cells were examined to establish blood-stage infection. Blood smears were fixed with methanol, stained with Giemsa, and viewed under oil immersion at 1000× magnification under standard light microscopy.

[3] = system: P. yoelii blood-stage infection; experiment: Single-dose cure of blood-stage murine malaria; format: in vivo, Plasmodium yoelii; settings: for blood stage in vivo efficacy, single dose cure: lowest single oral dose curing all four mice, day 30; for lowest fully protective single dose cure: single oral dose day 1, aparasitemic day 30, four mice, parent-drug equivalent
Description: (§1) On day 5, a drop of blood was taken from the tail, and a blood smear was prepared, fixed with methanol, and stained with Giemsa. The operator then examined the stained smear microscopically to determine percent parasitemia. […] In this model, animals were inoculated exactly as for the 4 day test on day 0; however, drug was administered only on day 1, whereas smears were made on day 5 and again weekly thereafter for animals that remained aparasitemic. Animals that remained aparasitemic on day 30 were scored as cures.
The effectiveness of selected 3-biaryl ELQs and prodrugs was assessed vs the blood-stage infection for single-dose cures. Mice were infected iv with 3.5 × 10^4P. yoelii infected RBCs as described for the 4 day test above. Drug administration occurred on the day after inoculation (day 1). Test agents were dissolved in PEG-400 and administered ig once. On the fifth day, blood films were prepared, and % parasitemia was assessed. Animals remaining parasite-free for 30 days after drug administration were considered cured. The initial dosing range was 0.25, 0.5, 1, 3, and 10 mg/kg, including a control. Experiments were performed with four mice per group to ensure statistical accuracy. The reported parameter for these studies is the lowest single dose that provides a cure to all four animals in the group.

[4] = system: P. yoelii blood-stage infection; settings: for blood stage in vivo efficacy, 4 day Peters test results, NRD (nonrecrudescence dose) / blood stage in vivo efficacy, 4 day Peters test results, ED50 / blood stage in vivo efficacy, 4 day Peters test results, ED90: mice; for blood stage in vivo efficacy, 4 day Peters test results, NRD (nonrecrudescence dose): oral gavage days 1-4, followed to day 30; for blood stage in vivo efficacy, 4 day Peters test results, ED50 / blood stage in vivo efficacy, 4 day Peters test results, ED90: oral gavage days 1-4, parasitemia day 5, prodrugs dosed on molar equivalency to parent
Description: as §1
The P. yoelii 4 day test monitors suppression of patent infection in female CF1 mice. The test began with the inoculation (iv) of parasitized erythrocytes (3.5 × 10^4P. yoelli) (from a donor animal) on the first day of the experiment (D0). […] Initially, the 3-biaryl-ELQs were tested at doses of 0.0025, 0.005, 0.01, 0.03, 0.1, 0.3, 1.0, and 10 mg/kg/day, including a vehicle-only (PEG400) control. After completion of drug treatment, a blood sample was collected (by pricking the tail vein) for determination of parasite burden beginning on the day after the final dose (D5). Percent parasitemia was assessed by direct microscopic analysis of Giemsa-stained blood smears. […] Animals with observable parasitemia following the experiment were euthanized; animals cleared of parasites from the bloodstream were observed daily with assessment of parasitemia performed weekly until day 30, at which point the animals were scored as cured of infection. […] Nonlinear regression analysis was used for objective determination of ED50’s and ED90’s from the accumulated data as well as the nonrecrudescence dose (NRD). The 4 day test protocol was reviewed and approved by the local IACUC board at the Portland VA Medical Center. Experiments were performed with four mice per group to ensure statistical accuracy.

[5] = system: P. falciparum multidrug-resistant Dd2 strain; experiment: microbe, parasite or virus in culture; format: cell-based; settings: Plasmodium falciparum, DD2, 72 h, read-out: P. falciparum IC50 values, Dd2
Description: (§2) All of this information is stored in a database with information relating to chemical structure, physical chemical properties, cross resistance patterns, mammalian cell cytotoxicity, enzyme inhibitor profiles, and synthesis details. Pharmacological data and in vivo efficacy data are also stored in the database for molecules of particular interest. […] We synthesized the compound in an initial batch size of about 800 mg as described above. […] Fluorescence readings were captured with a fluorescence plate reader and processed by nonlinear regression analysis using the GraphPad Prism software to provide IC50 values for each determination. Stock solutions were freshly prepared daily in DMSO in glass vials.
(§3) Laboratory strains of P. falciparum were cultured in human erythrocytes by standard methods. The parasites were grown in culture medium with fresh human erythrocytes maintained at 2% hematocrit at 37 °C in low-oxygen conditions (5% O2, 5% CO2, 90% N2). […] Cultures were maintained at less than 10% parasitemia by transfer of infected cells to fresh erythrocytes and culture medium every 3 or 4 days.
(§4) SYBR green I assay. In vitro antiplasmodial activity was assessed using a published SYBR Green I fluorescence-based method.[20] The drugs were added to 96-well plates using twofold serial dilutions in complete medium. […] Asynchronous P. falciparum parasites were diluted with uninfected erythrocytes and added to the wells to give a final culture volume of 100 μL at 2% hematocrit and 0.2% parasitemia. […] The parasites were then lysed by adding 100 μL of SYBR green I lysis buffer containing 0.2 μL/ml SYBR green I dye (10,000×) in 20 mM Tris (pH 7.5), 5 mM EDTA, 0.008% (wt/vol) saponin, and 0.08% (v/v) Triton X-100. The plates were incubated at room temperature for an hour in the dark. […] If the IC50 value fell outside of the initially tested range, then the range was adjusted up or down, and the assay was repeated twice.

[6] = system: P. falciparum drug-sensitive D6 strain; experiment: SYBR Green I antiplasmodial assay, D6 strain; format: cell-based; settings: Plasmodium falciparum, D6, 72 h, read-out: P. falciparum IC50 values, D6
Description: as §2, §3, §4

[7] = Pharmacokinetics after single dose of ELQ-598; format: in vivo; settings: for k el / Tmax / AUC(0-inf) / Cmax / half-life: mouse plasma; for bioavailability: read-out: F (oral bioavailability); for Vd / CL/F / Vdarea/F / AUCratio (molar AUC ELQ-598/AUC ELQ-596): mouse; for Vd: read-out: Vdss
Description: Animals had free access to food and water during the study. Following drug administration, the animals were manually restrained at the designated time points, and 100 μL of blood was withdrawn from the facial vein for semiserial sampling into heparinized tubes. Blood samples were placed on ice and centrifuged (2000g, 5 min, 4 °C) to obtain plasma. The plasma was mixed with 10% formic acid (FA) in water [plasma/10% FA (v/v = 10:1)]. […] At the outset of the study, 18 animals were randomly separated into two different groups (po and iv) of nine animals each. Blood samples were taken from three animals at each time point such that the same group of the animals was sampled at […] throughout the experiment for both po and iv arms. […] Dichlofenac was used as an internal standard.
MW is the molecular weight. The terminal elimination rate constant kel was estimated by linear least-squares regression analysis of the terminal log-linear portion of the plasma concentration–time curves by the software.

[8] = system: P. falciparum atovaquone-resistant clinical isolate Tm90-C2B; experiment: SYBR Green I antiplasmodial assay, Tm90-C2B; format: cell-based; settings: Plasmodium falciparum, TM90, 72 h, read-out: P. falciparum IC50 values, Tm90-C2B
Description: as §2, §3, §4

[9] = Metabolic stability in liver microsomes, human; format: in vitro ADME; settings: for half-life at 1 μM: human, pH 7.4
Description: (§5) […]. Samples were taken over the interval of 45 min and analyzed by LC–MS/MS for the presence of test compound. Ketanserin served as an internal standard for the metabolic rate of a drug with known intermediate stability. […].
(§6) The drug was incubated at 37 °C and 1 μM concentration in murine liver microsomes (Corning) for 45 min at a protein concentration of 0.5 mg/mL in potassium phosphate buffer at pH 7.4 containing 1.0 mM EDTA. The metabolic reaction was initiated by addition of NADPH and quenched with ice-cold acetonitrile at 0, 5, 15, 25, and 45 min.

[10] = Metabolic stability in liver microsomes, rat; format: in vitro ADME; settings: for half-life at 1 μM: rat, pH 7.4
[11] = HepG2 cytotoxicity / mitochondrial toxicity (TiterGlo ATP, galactose medium); settings: human
Description: HepG2 was routinely cultured in DMEM containing 10% fetal calf serum and 100 IU/mL penicillin and 100 μg/mL streptomycin (complete medium). For studies to investigate the potential for mitochondrial toxicity by selected 3-biaryl-ELQs, the medium contained galactose rather than glucose to force the cells to produce ATP through oxidative phosphorylation, which in turn makes them sensitive to mitochondrial toxicants.[36] […] After this period, the culture medium was removed, and the cells were shifted to galactose-containing medium with test drugs at concentrations ranging from 0 to 10 μM. Drug dilutions were prepared from DMSO stocks into galactose-containing medium. […] After incubation, the contents of each well were removed, and 25 μL of TiterGlo II reagent mix containing luciferase, detergent, and luciferin was added to each well along with 25 μL of culture medium. […] At this point, the plates were read on a luminometer (SpectraMax iD3 iD5Multi-Mode Microplate Reader), and the data were processed to yield the percent decrease in ATP production relative to no-drug control values. These values reflect the potential damage caused by mitochondrial toxicants due to reduced intracellular ATP levels caused by interference with the human mitochondrial electron transport chain. Assays were set up in triplicate.

[12] = Metabolic stability in liver microsomes, mouse; format: in vitro ADME; settings: pooled mouse liver microsomes, pH 7.4; for half-life at 1 μM: mouse liver microsomes 0.5 mg/mL, NADPH, 37 °C, 45 min
Description: as §5, §6

[13] = system: P. falciparum ELQ-300-resistant D1 clone; experiment: microbe, parasite or virus in culture; format: cell-based; settings: Plasmodium falciparum, 72 h, read-out: P. falciparum IC50 values, D1
[14] = male, CD1, mouse, plasma, po, 10 mg/kg, single ELQ-598 dose 10 mg/kg PO (PEG400), read-out: Tmax
[15] = male, CD1, mouse, plasma, po, 10 mg/kg
[16] = male, CD1, plasma, single ELQ-598 dose 0.3 mg/kg IV
[17] = male, CD1, plasma, single ELQ-598 dose 10 mg/kg PO, read-out: CL/F (converted)
[18] = male, CD1, single ELQ-598 dose 0.3 mg/kg IV
[19] = male, CD1, single ELQ-598 dose 0.3 mg/kg IV, elimination
[20] = male, CD1, single ELQ-598 dose 10 mg/kg PO
[21] = male, CD1, single ELQ-598 dose 10 mg/kg PO (PEG400)
[22] = male, CD1, single ELQ-598 dose 10 mg/kg PO, apparent elimination
[23] = single ELQ-598 dose 0.3 mg/kg IV
[24] = single ELQ-598 dose 10 mg/kg PO
[25] = pH 7.4, predicted intrinsic clearance

Compound	EC50 [1] [nM]	liver stage in vivo, # mice protected/total [2]	blood stage in vivo efficacy, single dose cure [3] [mg/kg/day]	lowest fully protective single dose cure [3] [mg/kg]	blood stage in vivo efficacy, 4 day Peters test results, NRD (nonrecrudescence dose) [4] [mg/kg/day]	blood stage in vivo efficacy, 4 day Peters test results, ED50 [4] [mg/kg/day]	blood stage in vivo efficacy, 4 day Peters test results, ED90 [4] [mg/kg/day]	IC50 [5] [nM]	IC50 [6] [nM]	Tmax [7, 14] [h]	bioavailability [7, 15] [%]	Vd [7, 16] [L/kg]	CL/F [7, 17] [mL/min/kg]	AUC(0-inf) [7, 18] [ng·h/mL]	half-life [7, 19] [h]	AUC(0-inf) [7, 20] [ng·h/mL]	Cmax [7, 21] [ng/mL]	half-life [7, 22] [h]	CL/F [7, 23] [mL/min/kg]	Vdarea/F [7, 23] [L/kg]	also measured
CCCCCC[C@H]1C(=O)O[C@H](C)[C@H](NC(=O)c2cccc(NC=O)c2O)C(=O)O[C@@H](C)[C@@H]1OC(=O)CC(C)C [Antimycin A, reference compound]	< 156																				
CCOC(=O)OCOc1c(-c2ccc(Oc3ccc(OC(F)(F)F)cc3)cc2)c(C)nc2cc(OC)c(Cl)cc12 [ELQ-331]		completely protective and 4/4	3	3	1.0	0.02	0.05														
COc1cc2[nH]c(C)c(-c3ccc(-c4ccc(OC(F)(F)F)cc4)cc3)c(=O)c2cc1Cl [ELQ-596, 6-Chloro-7-methoxy-2-methyl-3-(4′-(trifluoromethoxy)-[1,1′-biphenyl]-4-yl)quinolin-4(1H)-one]	> 10000				0.3	0.01	0.021	1.6	1.4	4	73	0.78	0.283	12200	27.4	484000	6680	45.7	0.333	0.81	k el ([7]; male, CD1, in vivo, single ELQ-598 dose 0.3 mg/kg IV): 6.94e-06 s⁻¹; k el ([7]; male, CD1, in vivo, single ELQ-598 dose 10 mg/kg PO (PEG400)): 4.17e-06 s⁻¹; Tmax ([7]; male, CD1, mouse, plasma, iv, 0.3 mg/kg, single ELQ-598 dose 0.3 mg/kg IV, read-out: Tmax): 4 h; Cmax [7, 18]: 303 ng/mL; Cmax [7, 20]: 14.5 µM; Tmax ([7]; single ELQ-598 dose 0.3 mg/kg IV, 0.3 mg/kg): 2 h; Vdarea/F [7, 24]: 1.11 L/kg; IC50 [8]: 0.7 nM; half-life at 1 μM [9]: > 66.7 h; half-life at 1 μM [10]: > 66.7 h; EC50 at 24 h [11]: > 10000 nM; IC50 at 24 h [11]: > 10000 nM; half-life at 1 μM [12]: > 66.7 h
CCOC(=O)OCOc1c(-c2ccc(-c3ccc(OC(F)(F)F)cc3)cc2)c(C)nc2cc(OC)c(Cl)cc12 [ELQ-598, (((6-Chloro-7-methoxy-2-methyl-3-(4′-(trifluoromethoxy)-[1,1′-biphenyl]-4-yl)quinolin-4-yl)oxy)methylethyl carbonate]		complete protection and 4/4	0.3	0.3	0.12	0.005	0.0065	4.4	1.5	≤ 2	0.26	0.09	398	757	0.74	419	79.4	5	6.67	0.42	IC50 [13]: 734 nM; k el [7, 18]: 0.000258 s⁻¹; k el [7, 21]: 3.89e-05 s⁻¹; AUCratio (molar AUC ELQ-598/AUC ELQ-596) [7, 23]: 5.1%; AUCratio (molar AUC ELQ-598/AUC ELQ-596) [7, 24]: 0.07%; Vdarea/F [7, 24]: 173.5 L/kg; IC50 [8]: 0.8 nM; IC50 at 24 h ([11]; HepG2 cells): > 10000 nM; animals protected by single dose ([3]; 0.25 mg/kg single oral dose, four mice): two of four; effectiveness as single dose cure agent compared to ELQ-331 ([3]; blood-stage P. yoelii in mice): ~10 times; appearance, behavioral, or weight changes after dosing ([4]; in vivo): no appearance, behavioral, or weight changes observed
O=C(c1ccc(F)cc1)C1CCN(CCn2c(=O)[nH]c3ccccc3c2=O)CC1 [ketanserin]																					half-life at 1 μM [9]: 0.455 h; CLint scaled at 1 μM [9, 25]: 63.7 mL/min/kg; CLint scaled at 1 μM [10, 25]: 172 mL/min/kg; half-life at 1 μM [10]: 0.24 h; half-life at 1 μM [12]: 0.318 h; CLint scaled at 1 μM ([12]; mouse liver microsomes, predicted intrinsic clearance): 286 mL/min/kg
